Results on 23 compounds are retold here after patent US12570988B2, “Aptamers that bind thiamine analogs and derivatives” (MeiraGTx Gene Regulation Limited, priority 2020, dated 2026).

Assay [1] concerns riboswitch 15D10. In words: Luciferase reporter with 15D10 riboswitch (Luci-15D10) in AML12 cells. The following applies: Mus musculus, AML12, 24 h, 50 μM; AML12 cells; Table 2; read-out: Fold increase in riboswitch 15D10-regulated luciferase expression, AML. It is filed as cell-based, mouse.
The test system of assay [2] is riboswitch 15D10. Description: Luciferase reporter with 15D10 riboswitch (Luci-15D10) in HEK 293 cells. The class given is cell-based, human. The conditions noted are these: Homo sapiens, HEK293, 24 h, 50 μM; HEK 293 cells; Table 2; read-out: Fold increase in riboswitch 15D10-regulated luciferase expression, HEK. The protocol: Transfection: 3.5×10^4 human embryonic kidney (HEK) 293 cells were plated in a 96-well flat bottom plate the day before transfection. Plasmid DNA (500 ng) was added to a tube or a 96-well U-bottom plate. […] Then, 50 μL of this diluted transfection reagent was added to the DNA, mixed, and incubated at RT for 20 min. Finally, 7 μL of this solution was added to a well of cells in the 96-well plate. Four hours after transfection, medium containing transfection solution was replaced by medium containing either TPP, fursultiamine, prosultiamine, bisbentiamine, beclotiamine hydrochloride, or sulbutiamine as aptamer inducers.
Firefly luciferase assay of cultured cells: Twenty-four hours after media change, plates were removed from the incubator, and equilibrated to RT for several minutes on a lab bench, then aspirated. Glo-lysis buffer (Promega, 100 μL, RT) was added, and the plates allowed to remain at RT for at least 5 minutes. Then, the well contents were mixed by 50 μL trituration, and 20 μL of each sample was mixed with 20 μL of bright-glo reagent (Promega) that had been diluted to 10% in glo-lysis buffer. 96 wells were spaced on an opaque white 384-well plate. Following a 5 min incubation at RT, luminescence was measured using a Tecan machine with 500 ms read time. The luciferase activity was expressed as mean arbitrary light units (ALU)±S.D., and fold induction was calculated as the quotient of the luciferase activity obtained from cells with TPP or analog treatment divided by the luciferase activity obtained from cells without TPP or analog treatment.

For the compound `C/C(=C(\CCO)SC(=O)C1(c2cccc(Br)c2)CC1)N(C=O)Cc1cnc(C)nc1N` [Compound M65, (Z)—S-(2-(N-((4-amino-2-methylpyrimidin-5-yl)methyl)formamido)-5-hydroxypent-2-en-3-yl) 1-(3-bromophenyl)cyclopropane-1-carbothioate], the results for the fold induction at 50 µM in the assay on riboswitch 15D10 [1] and in the assay with riboswitch 15D10 [2] were 67.1 and 3.2, respectively.

As to `C/C(=C(\CCO)SC(=O)c1c(Cl)cc(-c2ccccc2)cc1Cl)N(C=O)Cc1cnc(C)nc1N` [Compound M66, (Z)—S-(2-(N-((4-amino-2-methylpyrimidin-5-yl)methyl)formamido)-5-hydroxypent-2-en-3-yl) 3,5-dichloro-[1,1′-biphenyl]-4-carbothioate], the fold induction at 50 µM in the assay with riboswitch 15D10 [1] amounted to 0.4; in the assay with riboswitch 15D10 [2], 1.1.

On to `C/C(=C(\CCO)SC(=O)c1c(C)cc(C(C)(C)C)cc1C)N(C=O)Cc1cnc(C)nc1N` [Compound M67, (Z)—S-(2-(N-((4-amino-2-methylpyrimidin-5-yl)methyl)formamido)-5-hydroxypent-2-en-3-yl) 4-(tert-butyl)-2,6-dimethylbenzothioate], for which the values for the fold induction at 50 µM in the assay with riboswitch 15D10 [1] and with riboswitch 15D10 [2] were 0.9 and 2.1, respectively.

For the compound `C/C(=C(\CCO)SC(=O)c1ccc(-c2ccccc2)cc1Cl)N(C=O)Cc1cnc(C)nc1N` [Compound M68, (Z)—S-(2-(N-((4-amino-2-methylpyrimidin-5-yl)methyl)formamido)-5-hydroxypent-2-en-3-yl) 3-chloro-[1,1′-biphenyl]-4-carbothioate], the figures for the fold induction at 50 µM in the assay with riboswitch 15D10 [1] and in the assay with riboswitch 15D10 [2] were 209 and 303, respectively.

Turning to `C/C(=C(\CCO)SC(=O)c1cc(C(C)(C)C)cc(C(C)(C)C)c1)N(C=O)Cc1cnc(C)nc1N` [Compound M70, (Z)—S-(2-(N-((4-amino-2-methylpyrimidin-5-yl)methyl)formamido)-5-hydroxypent-2-en-3-yl) 3,5-di-tert-butylbenzothioate], the fold induction at 50 µM amounted to 236 with riboswitch 15D10 [1] and 51 with riboswitch 15D10 [2].

For `C/C(=C(\CCO)SC(=O)c1cccc(-c2ccccc2)c1)N(C=O)Cc1cnc(C)nc1N` [Compound M72, (Z)—S-(2-(N-((4-amino-2-methylpyrimidin-5-yl)methyl)formamido)-5-hydroxypent-2-en-3-yl) [1,1′-biphenyl]-3-carbothioate], the fold induction at 50 µM in the assay with riboswitch 15D10 [1] amounted to 295; in the assay on riboswitch 15D10 [2], 236.

As to `C/C(=C(\CCO)SC(=O)c1ccc(Oc2ccccc2)cc1)N(C=O)Cc1cnc(C)nc1N` [Compound M73, (Z)—S-(2-(N-((4-amino-2-methylpyrimidin-5-yl)methyl)formamido)-5-hydroxypent-2-en-3-yl) 4-phenoxybenzothioate], the fold induction at 50 µM in the assay with riboswitch 15D10 [1] is 200; in the assay on riboswitch 15D10 [2], 205.

`C/C(=C(\CCO)SC(=O)c1ccc2oc3ccccc3c2c1)N(C=O)Cc1cnc(C)nc1N` [Compound M76, (Z)—S-(2-(N-((4-amino-2-methylpyrimidin-5-yl)methyl)formamido)-5-hydroxypent-2-en-3-yl) dibenzo[b,d]furan-2-carbothioate]: the fold induction at 50 µM in the assay with riboswitch 15D10 [1] was 134; in the assay on riboswitch 15D10 [2], 60.7.

As to `C/C(=C(\CCO)SC(=O)c1ccc2sccc2c1)N(C=O)Cc1cnc(C)nc1N` [Compound M79, (Z)—S-(2-(N-((4-amino-2-methylpyrimidin-5-yl)methyl)formamido)-5-hydroxypent-2-en-3-yl) benzo[b]thiophene-5-carbothioate], the fold induction at 50 µM with riboswitch 15D10 [1] came to 358; with riboswitch 15D10 [2] it was 353.

`COCCOc1ccc(C(=O)S/C(CCO)=C(/C)N(C=O)Cc2cnc(C)nc2N)cc1` [Compound M82, (Z)—S-(2-(N-((4-amino-2-methylpyrimidin-5-yl)methyl)formamido)-5-hydroxypent-2-en-3-yl) 4-(2-methoxyethoxy)benzothioate]: the fold induction at 50 µM turned out to be 73.9 in the assay on riboswitch 15D10 [1] and 89.2 in the assay with riboswitch 15D10 [2].

Consider `C/C(=C(\CCO)SC(=O)/C=C/c1ccc2ccccc2c1)N(C=O)Cc1cnc(C)nc1N` [Compound M88, S—((Z)-2-(N-((4-amino-2-methylpyrimidin-5-yl)methyl)formamido)-5-hydroxypent-2-en-3-yl) (E)-3-(naphthalen-2-yl)prop-2-enethioate], for which the fold induction at 50 µM with riboswitch 15D10 [1] was 355; in the assay with riboswitch 15D10 [2], 216.

For the compound `C/C(=C(\CCO)SCOC(=O)c1cccc2ccccc12)N(C=O)Cc1cnc(C)nc1N` [Compound M97, (Z)-((2-(N-((4-amino-2-methylpyrimidin-5-yl)methyl)formamido)-5-hydroxypent-2-en-3-yl)thio)methyl 1-naphthoate], the fold induction at 50 µM in the assay on riboswitch 15D10 [1] came out at 126; in the assay with riboswitch 15D10 [2], 299.

As for `C/C(=C(\CCO)SCOC(=O)c1cc2ccccc2c2ccccc12)N(C=O)Cc1cnc(C)nc1N` [Compound M98, (Z)-((2-(N-((4-amino-2-methylpyrimidin-5-yl)methyl)formamido)-5-hydroxypent-2-en-3-yl)thio)methyl phenanthrene-9-carboxylate], the figures for the fold induction at 50 µM in the assay with riboswitch 15D10 [1] and in the assay with riboswitch 15D10 [2] were 57.7 and 13.6, respectively.

As for `C/C(=C(\CCO)SCOC(=O)c1ccc2c(c1)C(C)(C)CCC2(C)C)N(C=O)Cc1cnc(C)nc1N` [Compound M99, (Z)-((2-(N-((4-amino-2-methylpyrimidin-5-yl)methyl)formamido)-5-hydroxypent-2-en-3-yl)thio)methyl 5,5,8,8-tetramethyl-5,6,7,8-tetrahydronaphthalene-2-carboxylate], the fold induction at 50 µM stood at 0.4 in the assay with riboswitch 15D10 [1] and 0.2 with riboswitch 15D10 [2].

As to `CCOc1ccc2ccccc2c1C(=O)OCS/C(CCO)=C(/C)N(C=O)Cc1cnc(C)nc1N` [Compound M100, (Z)-((2-(N-((4-amino-2-methylpyrimidin-5-yl)methyl)formamido)-5-hydroxypent-2-en-3-yl)thio)methyl 2-ethoxy-1-naphthoate], the fold induction at 50 µM with riboswitch 15D10 [1] is 0.4; in the assay with riboswitch 15D10 [2], 1.1.

On to `C/C(=C(\CCO)SCOC(=O)C(C)(C)Cc1ccc2ccccc2c1)N(C=O)Cc1cnc(C)nc1N` [Compound M101, (Z)-((2-(N-((4-amino-2-methylpyrimidin-5-yl)methyl)formamido)-5-hydroxypent-2-en-3-yl)thio)methyl 2,2-dimethyl-3-(naphthalen-2-yl)propanoate], for which the results for the fold induction at 50 µM in the assay on riboswitch 15D10 [1] and in the assay on riboswitch 15D10 [2] were 128 and 88.6, respectively.

Consider `C/C(=C(\CCO)SCOC(=O)C(C)(c1ccccc1)c1ccccc1)N(C=O)Cc1cnc(C)nc1N` [Compound M103, (Z)-((2-(N-((4-amino-2-methylpyrimidin-5-yl)methyl)formamido)-5-hydroxypent-2-en-3-yl)thio)methyl 2,2-diphenylpropanoate], for which the fold induction at 50 µM in the assay with riboswitch 15D10 [1] is 0.5; in the assay on riboswitch 15D10 [2], 0.9.

As to `C/C(=C(\CCO)SCOC(=O)C(c1ccccc1)(c1ccccc1)c1ccccc1)N(C=O)Cc1cnc(C)nc1N` [Compound M105, (Z)-((2-(N-((4-amino-2-methylpyrimidin-5-yl)methyl)formamido)-5-hydroxypent-2-en-3-yl)thio)methyl 2,2,2-triphenylacetate], the fold induction at 50 µM with riboswitch 15D10 [1] and in the assay with riboswitch 15D10 [2] was 0.2 in each case.

As to `C/C(=C(\CCO)SCOC(=O)C(C)(C)c1ccc2ccccc2c1)N(C=O)Cc1cnc(C)nc1N` [Compound M107, (Z)-((2-(N-((4-amino-2-methylpyrimidin-5-yl)methyl)formamido)-5-hydroxypent-2-en-3-yl)thio)methyl 2-methyl-2-(naphthalen-2-yl)propanoate], the fold induction at 50 µM with riboswitch 15D10 [1] amounted to 40.2; in the assay on riboswitch 15D10 [2] it was 26.

With `COc1ccc2c(C(=O)S/C(CCO)=C(/C)N(C=O)Cc3cnc(C)nc3N)cccc2c1` [Compound M108, (Z)—S-(2-(N-((4-amino-2-methylpyrimidin-5-yl)methyl)formamido)-5-hydroxypent-2-en-3-yl) 6-methoxynaphthalene-1-carbothioate], the fold induction at 50 µM with riboswitch 15D10 [1] turned out to be 129; with riboswitch 15D10 [2], 75.8.

Take `CCOc1ccc(C(=O)S/C(CCO)=C(/C)N(C=O)Cc2cnc(C)nc2N)c2ccccc12` [Compound M109, (Z)—S-(2-(N-((4-amino-2-methylpyrimidin-5-yl)methyl)formamido)-5-hydroxypent-2-en-3-yl) 4-ethoxynaphthalene-1-carbothioate]: the figures for the fold induction at 50 µM in the assay on riboswitch 15D10 [1] and with riboswitch 15D10 [2] were 87.3 and 22.6, respectively.

`CCc1ccc(C(=O)S/C(CCO)=C(/C)N(C=O)Cc2cnc(C)nc2N)c2ccccc12` [Compound M110, (Z)—S-(2-(N-((4-amino-2-methylpyrimidin-5-yl)methyl)formamido)-5-hydroxypent-2-en-3-yl) 4-ethylnaphthalene-1-carbothioate]: the fold induction at 50 µM in the assay on riboswitch 15D10 [1] amounted to 146; in the assay on riboswitch 15D10 [2], 65.7.

Turning to `C/C(=C(\CCO)SC(=O)c1cccc2c(Br)cccc12)N(C=O)Cc1cnc(C)nc1N` [Compound M111, (Z)—S-(2-(N-((4-amino-2-methylpyrimidin-5-yl)methyl)formamido)-5-hydroxypent-2-en-3-yl) 5-bromonaphthalene-1-carbothioate], the results for the fold induction at 50 µM with riboswitch 15D10 [1] and in the assay on riboswitch 15D10 [2] were 175 and 181, respectively.
